Key:
[1] = target: Ribosomal protein S6 kinase alpha-6 (Homo sapiens, UniProt Q9UK32)
[2] = target: Receptor-type tyrosine-protein kinase FLT3 (Homo sapiens, UniProt P36888, N841I)
[3] = target: Serine/threonine-protein kinase PLK1 (Homo sapiens, UniProt P53350)
[4] = target: Serine/threonine-protein kinase Nek7 (Homo sapiens, UniProt Q8TDX7)
[5] = target: T1, Serine/threonine-protein kinase PLK4 (Homo sapiens, UniProt O00444)
T1 sequence (O00444 whole entry): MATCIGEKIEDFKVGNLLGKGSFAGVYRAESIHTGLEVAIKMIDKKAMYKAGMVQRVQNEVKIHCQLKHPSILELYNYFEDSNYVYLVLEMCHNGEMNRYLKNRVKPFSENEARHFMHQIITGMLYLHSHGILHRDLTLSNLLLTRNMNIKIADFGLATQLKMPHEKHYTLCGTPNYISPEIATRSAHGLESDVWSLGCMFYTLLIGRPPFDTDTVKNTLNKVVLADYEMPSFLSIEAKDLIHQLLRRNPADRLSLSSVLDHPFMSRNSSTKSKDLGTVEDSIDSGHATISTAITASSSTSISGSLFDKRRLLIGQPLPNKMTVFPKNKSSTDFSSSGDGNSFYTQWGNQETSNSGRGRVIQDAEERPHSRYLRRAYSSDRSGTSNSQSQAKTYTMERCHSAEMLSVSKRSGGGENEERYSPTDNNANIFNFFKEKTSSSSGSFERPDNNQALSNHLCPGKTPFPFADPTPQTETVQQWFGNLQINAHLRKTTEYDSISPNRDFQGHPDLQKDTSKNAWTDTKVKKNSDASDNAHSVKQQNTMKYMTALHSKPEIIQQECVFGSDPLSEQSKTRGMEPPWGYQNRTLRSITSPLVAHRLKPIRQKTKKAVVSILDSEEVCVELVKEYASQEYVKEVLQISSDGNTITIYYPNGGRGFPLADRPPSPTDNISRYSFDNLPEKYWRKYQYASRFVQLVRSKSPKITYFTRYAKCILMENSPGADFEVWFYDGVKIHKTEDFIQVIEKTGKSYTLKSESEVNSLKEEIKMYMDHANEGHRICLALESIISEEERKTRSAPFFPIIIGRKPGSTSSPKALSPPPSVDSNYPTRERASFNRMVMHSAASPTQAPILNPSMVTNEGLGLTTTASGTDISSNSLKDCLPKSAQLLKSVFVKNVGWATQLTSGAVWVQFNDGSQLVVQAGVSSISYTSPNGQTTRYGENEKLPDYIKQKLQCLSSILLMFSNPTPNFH

Activin receptor type-1B = target: T2, Activin receptor type-1B (Homo sapiens, UniProt P36896)
T2 sequence (P36896 whole entry): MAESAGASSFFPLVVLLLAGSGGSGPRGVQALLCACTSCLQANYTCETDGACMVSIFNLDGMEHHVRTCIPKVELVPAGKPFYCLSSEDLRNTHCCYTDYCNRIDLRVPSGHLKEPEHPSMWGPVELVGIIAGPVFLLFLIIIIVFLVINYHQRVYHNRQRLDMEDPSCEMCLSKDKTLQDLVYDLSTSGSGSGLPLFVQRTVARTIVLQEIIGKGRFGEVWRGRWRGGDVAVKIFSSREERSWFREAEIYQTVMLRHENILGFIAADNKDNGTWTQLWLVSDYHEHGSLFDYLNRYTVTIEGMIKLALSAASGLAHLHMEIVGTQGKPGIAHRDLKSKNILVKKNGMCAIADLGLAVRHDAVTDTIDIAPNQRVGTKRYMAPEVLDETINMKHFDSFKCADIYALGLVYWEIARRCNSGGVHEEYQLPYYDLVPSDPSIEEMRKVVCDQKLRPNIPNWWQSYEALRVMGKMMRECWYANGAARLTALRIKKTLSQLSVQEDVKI

[6] = target: Cyclin-dependent kinase 19 (Homo sapiens, UniProt Q9BWU1)
[7] = target: Serine/threonine-protein kinase 32C (Homo sapiens, UniProt Q86UX6)
[8] = target: Dual specificity mitogen-activated protein kinase kinase 2 (Homo sapiens, UniProt P36507)
Wee1-like protein kinase = Wee1-like protein kinase (Homo sapiens, UniProt P30291)
Ephrin type-A receptor 6 = target: T3, Ephrin type-A receptor 6 (Homo sapiens, UniProt Q9UF33)
T3 sequence (Q9UF33 whole entry): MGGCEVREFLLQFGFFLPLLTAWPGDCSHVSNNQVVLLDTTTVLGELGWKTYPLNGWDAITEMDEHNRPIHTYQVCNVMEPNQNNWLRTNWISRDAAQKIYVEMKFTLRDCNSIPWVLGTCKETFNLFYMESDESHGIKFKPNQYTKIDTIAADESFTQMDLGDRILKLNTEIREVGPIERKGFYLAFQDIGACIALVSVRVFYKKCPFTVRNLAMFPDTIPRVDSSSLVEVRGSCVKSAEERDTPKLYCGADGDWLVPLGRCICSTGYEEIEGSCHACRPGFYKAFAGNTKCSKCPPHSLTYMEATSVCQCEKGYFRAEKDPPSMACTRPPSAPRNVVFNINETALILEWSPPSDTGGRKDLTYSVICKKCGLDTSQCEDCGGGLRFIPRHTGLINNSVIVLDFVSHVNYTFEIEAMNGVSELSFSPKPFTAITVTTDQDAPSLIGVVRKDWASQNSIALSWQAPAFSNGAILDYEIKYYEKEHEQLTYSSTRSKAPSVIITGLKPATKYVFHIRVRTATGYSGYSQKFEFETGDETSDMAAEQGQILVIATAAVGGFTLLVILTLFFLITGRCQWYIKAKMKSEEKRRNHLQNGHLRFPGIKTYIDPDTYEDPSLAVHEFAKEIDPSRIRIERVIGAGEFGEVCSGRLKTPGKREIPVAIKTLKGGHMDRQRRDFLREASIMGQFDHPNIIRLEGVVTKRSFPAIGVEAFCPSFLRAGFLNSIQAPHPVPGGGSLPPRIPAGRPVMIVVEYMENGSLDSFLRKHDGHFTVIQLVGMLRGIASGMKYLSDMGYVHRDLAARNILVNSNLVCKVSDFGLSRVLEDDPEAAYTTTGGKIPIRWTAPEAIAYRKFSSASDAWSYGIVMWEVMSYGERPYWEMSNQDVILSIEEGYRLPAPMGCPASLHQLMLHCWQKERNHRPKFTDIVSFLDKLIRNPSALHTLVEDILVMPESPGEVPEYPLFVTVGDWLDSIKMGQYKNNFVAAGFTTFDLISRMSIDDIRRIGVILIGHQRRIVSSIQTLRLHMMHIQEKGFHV

[9] = target: Tyrosine-protein kinase ABL1 (Homo sapiens, UniProt P00519)
Chain of Tyrosine-protein kinase ABL1 (P00519 whole entry): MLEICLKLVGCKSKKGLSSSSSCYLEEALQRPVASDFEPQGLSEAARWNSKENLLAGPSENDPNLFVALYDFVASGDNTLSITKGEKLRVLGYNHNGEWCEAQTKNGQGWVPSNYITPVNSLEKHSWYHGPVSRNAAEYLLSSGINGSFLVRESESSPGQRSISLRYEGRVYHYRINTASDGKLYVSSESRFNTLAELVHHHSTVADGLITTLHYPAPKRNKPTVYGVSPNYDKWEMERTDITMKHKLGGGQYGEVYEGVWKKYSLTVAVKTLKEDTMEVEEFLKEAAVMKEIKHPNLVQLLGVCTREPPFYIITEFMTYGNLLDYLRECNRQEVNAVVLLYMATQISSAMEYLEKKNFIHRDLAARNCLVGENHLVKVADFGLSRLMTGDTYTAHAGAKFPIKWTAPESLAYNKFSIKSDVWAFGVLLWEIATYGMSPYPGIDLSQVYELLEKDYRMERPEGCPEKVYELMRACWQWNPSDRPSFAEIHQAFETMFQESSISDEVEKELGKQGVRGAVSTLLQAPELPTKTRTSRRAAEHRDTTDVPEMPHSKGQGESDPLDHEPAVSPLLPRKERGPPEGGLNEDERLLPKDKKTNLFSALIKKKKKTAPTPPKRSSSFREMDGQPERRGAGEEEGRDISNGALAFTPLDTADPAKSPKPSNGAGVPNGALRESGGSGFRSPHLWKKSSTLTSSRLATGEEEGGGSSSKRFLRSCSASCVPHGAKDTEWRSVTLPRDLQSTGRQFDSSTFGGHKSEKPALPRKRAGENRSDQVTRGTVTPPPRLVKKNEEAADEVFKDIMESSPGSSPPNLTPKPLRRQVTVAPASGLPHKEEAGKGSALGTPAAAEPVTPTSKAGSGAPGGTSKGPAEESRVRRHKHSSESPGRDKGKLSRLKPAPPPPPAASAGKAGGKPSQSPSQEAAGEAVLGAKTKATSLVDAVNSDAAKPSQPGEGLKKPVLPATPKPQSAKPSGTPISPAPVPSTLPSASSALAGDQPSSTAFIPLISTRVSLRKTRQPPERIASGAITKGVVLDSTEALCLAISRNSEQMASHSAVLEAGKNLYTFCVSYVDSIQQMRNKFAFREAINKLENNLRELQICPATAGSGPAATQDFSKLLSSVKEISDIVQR

Chain of Dual specificity mitogen-activated protein kinase kinase 2 (P36507 whole entry): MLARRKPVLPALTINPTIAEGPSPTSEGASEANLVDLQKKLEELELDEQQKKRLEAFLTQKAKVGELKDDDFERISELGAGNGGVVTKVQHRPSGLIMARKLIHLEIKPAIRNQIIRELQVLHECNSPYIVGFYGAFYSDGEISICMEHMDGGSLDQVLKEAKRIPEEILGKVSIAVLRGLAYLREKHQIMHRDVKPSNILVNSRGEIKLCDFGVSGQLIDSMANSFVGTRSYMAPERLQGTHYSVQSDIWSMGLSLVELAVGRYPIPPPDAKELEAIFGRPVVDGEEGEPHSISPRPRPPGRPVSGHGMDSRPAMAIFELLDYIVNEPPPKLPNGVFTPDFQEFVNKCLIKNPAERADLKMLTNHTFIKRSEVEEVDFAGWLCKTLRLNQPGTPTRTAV
Chain of Serine/threonine-protein kinase Nek7 (Q8TDX7 whole entry): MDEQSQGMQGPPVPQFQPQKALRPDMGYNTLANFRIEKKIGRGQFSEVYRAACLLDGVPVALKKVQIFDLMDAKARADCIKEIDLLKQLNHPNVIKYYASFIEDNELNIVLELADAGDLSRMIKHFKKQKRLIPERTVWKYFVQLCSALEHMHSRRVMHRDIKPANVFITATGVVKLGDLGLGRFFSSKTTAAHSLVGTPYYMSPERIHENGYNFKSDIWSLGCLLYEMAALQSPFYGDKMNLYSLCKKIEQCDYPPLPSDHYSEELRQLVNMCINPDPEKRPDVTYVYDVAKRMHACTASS
Chain of Serine/threonine-protein kinase PLK1 (P53350 whole entry): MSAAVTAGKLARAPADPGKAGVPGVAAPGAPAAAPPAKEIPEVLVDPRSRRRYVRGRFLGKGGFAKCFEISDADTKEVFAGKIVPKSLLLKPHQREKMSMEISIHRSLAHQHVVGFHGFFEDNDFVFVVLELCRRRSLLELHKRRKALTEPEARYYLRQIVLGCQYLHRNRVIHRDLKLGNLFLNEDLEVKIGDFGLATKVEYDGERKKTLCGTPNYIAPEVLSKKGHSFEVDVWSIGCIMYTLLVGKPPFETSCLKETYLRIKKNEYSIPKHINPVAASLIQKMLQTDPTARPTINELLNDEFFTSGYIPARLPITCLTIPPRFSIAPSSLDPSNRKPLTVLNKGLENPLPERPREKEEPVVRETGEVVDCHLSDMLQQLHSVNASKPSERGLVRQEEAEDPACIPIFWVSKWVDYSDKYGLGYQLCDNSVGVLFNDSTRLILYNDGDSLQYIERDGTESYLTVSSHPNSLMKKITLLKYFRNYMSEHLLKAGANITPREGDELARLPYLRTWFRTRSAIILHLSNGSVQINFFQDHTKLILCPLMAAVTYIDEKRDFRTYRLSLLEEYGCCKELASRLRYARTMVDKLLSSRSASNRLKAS
Chain of Serine/threonine-protein kinase 32C (Q86UX6 whole entry): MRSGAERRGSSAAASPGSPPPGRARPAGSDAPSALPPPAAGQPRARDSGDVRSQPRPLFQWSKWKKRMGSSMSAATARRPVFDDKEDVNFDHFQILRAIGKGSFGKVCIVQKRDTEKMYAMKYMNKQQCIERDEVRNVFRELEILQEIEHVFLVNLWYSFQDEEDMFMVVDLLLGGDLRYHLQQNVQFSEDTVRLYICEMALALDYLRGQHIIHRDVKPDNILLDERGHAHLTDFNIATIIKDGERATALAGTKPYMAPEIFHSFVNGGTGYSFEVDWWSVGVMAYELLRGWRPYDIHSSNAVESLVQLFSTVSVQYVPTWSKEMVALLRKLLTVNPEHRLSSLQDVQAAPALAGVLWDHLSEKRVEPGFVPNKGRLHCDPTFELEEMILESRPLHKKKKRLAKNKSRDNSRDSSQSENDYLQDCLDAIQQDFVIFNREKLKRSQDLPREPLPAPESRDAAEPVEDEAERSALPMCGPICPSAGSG
Chain of Cyclin-dependent kinase 19 (Q9BWU1 whole entry): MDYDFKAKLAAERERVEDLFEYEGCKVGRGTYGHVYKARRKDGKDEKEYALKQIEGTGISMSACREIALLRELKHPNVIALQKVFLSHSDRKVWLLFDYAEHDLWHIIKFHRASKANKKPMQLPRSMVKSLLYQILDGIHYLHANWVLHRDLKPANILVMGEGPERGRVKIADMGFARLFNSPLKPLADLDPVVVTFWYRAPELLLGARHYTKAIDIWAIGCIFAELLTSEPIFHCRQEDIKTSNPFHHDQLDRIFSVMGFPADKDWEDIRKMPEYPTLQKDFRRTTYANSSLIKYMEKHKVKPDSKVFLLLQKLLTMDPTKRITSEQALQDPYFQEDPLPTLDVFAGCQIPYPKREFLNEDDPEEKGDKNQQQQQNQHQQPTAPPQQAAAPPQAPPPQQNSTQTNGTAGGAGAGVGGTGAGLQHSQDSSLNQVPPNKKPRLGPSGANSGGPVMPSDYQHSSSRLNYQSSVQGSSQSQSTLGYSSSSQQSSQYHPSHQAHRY
Chain of Ribosomal protein S6 kinase alpha-6 (Q9UK32 whole entry): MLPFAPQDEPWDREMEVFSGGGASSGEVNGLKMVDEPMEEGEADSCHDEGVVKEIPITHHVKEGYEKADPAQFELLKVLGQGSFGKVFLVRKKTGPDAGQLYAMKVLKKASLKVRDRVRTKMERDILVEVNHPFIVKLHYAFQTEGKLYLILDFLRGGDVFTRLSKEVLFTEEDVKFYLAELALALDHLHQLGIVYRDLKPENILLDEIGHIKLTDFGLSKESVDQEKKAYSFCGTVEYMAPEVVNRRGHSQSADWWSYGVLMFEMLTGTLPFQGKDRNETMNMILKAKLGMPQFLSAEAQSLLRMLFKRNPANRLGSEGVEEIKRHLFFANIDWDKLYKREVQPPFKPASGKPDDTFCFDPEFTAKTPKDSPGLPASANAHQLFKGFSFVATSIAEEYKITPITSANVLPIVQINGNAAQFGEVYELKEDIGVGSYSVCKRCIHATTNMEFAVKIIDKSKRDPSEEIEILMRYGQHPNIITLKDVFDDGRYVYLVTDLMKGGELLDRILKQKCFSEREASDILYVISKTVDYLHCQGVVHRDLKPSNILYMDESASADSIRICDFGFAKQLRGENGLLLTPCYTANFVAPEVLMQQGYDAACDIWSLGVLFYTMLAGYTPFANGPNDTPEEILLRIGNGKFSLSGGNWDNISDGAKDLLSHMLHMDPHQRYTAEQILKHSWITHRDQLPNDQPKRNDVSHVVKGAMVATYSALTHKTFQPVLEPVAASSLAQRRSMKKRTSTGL
Chain of Wee1-like protein kinase (P30291 whole entry): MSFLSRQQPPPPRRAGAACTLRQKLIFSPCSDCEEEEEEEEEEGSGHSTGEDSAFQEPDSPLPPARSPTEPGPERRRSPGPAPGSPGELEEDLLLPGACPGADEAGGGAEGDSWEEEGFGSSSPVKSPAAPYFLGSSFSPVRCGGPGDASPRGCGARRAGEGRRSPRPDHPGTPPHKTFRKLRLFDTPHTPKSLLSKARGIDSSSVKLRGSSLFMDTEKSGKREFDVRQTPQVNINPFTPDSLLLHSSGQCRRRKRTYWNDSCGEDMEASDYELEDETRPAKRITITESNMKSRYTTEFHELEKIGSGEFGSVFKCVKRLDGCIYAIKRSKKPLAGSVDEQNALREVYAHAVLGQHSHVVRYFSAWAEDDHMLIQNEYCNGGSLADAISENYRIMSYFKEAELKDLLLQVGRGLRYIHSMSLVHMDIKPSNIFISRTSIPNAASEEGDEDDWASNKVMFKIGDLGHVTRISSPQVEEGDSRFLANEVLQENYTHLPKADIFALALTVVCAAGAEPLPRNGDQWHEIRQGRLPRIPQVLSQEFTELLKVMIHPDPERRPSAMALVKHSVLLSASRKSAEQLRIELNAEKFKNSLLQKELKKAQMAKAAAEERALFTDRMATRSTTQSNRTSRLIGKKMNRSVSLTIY

Compound | Kd [1] [µM] | Kd [2] [µM] | Kd [3] [µM] | Kd [4] [µM] | Kd [5] [µM] | Kd (Activin receptor type-1B) [µM] | Kd [6] [µM] | Kd [7] [µM] | Kd [8] [µM] | Kd (Wee1-like protein kinase) [µM] | Kd (Ephrin type-A receptor 6) [µM] | Kd [9] [µM]
CCOc1cc2ncc(C#N)c(Nc3ccc(F)c(Cl)c3)c2cc1NC(=O)/C=C/CN(C)C [PELITINIB] | > 10 | 2 | > 10 | > 10 | > 10 | > 10 | > 10 | > 10 | – | – | – | –
COCC(=O)NC/C=C/c1ccc2ncnc(Nc3ccc(Oc4ccc(C)nc4)c(C)c3)c2c1 [CP-724714] | > 10 | > 10 | > 10 | > 10 | > 10 | > 10 | – | > 10 | > 10 | > 10 | > 10 | > 10
NC(=O)c1ccc(-c2nc(-c3ccc4c(c3)OCO4)c(-c3ccccn3)[nH]2)cc1 [SB-431542] | – | – | > 10 | > 10 | > 10 | – | > 10 | > 10 | > 10 | > 10 | > 10 | > 10
Nc1nc(Nc2ccc(S(N)(=O)=O)cc2)nn1C(=O)c1c(F)cccc1F [JNJ-7706621] | – | – | 5 | > 10 | 0.12 | > 10 | > 10 | > 10 | – | > 10 | > 10 | –
Oc1ccc(-c2nc(-c3ccncc3)c(-c3ccc(F)cc3)[nH]2)cc1 [SB-202190] | 0.27 | > 10 | > 10 | > 10 | > 10 | 0.95 | > 10 | > 10 | 9.6 | > 10 | 2.2 | > 10

Reference: ChEMBL document CHEMBL1150977, “A quantitative analysis of kinase inhibitor selectivity” (Nat Biotechnol, 2008)
